Laboratory results: paper PMC7906907, “Targeting STAT3 by a small molecule suppresses pancreatic cancer progression” (Oncogene, 2021)
pKd: −log10 of the molar value.

Experiments:
[1] = system: PAN02-luc; test: Pancreatic cancer liver metastatic mouse model; type: in vivo, C57BL/6 mice
Protocol: C57BL/6 mice were intrasplenically injected with luciferase-expressing PAN02 cells (PAN02-luc) in matrigel and tumor growth was assessed (A) and quantified (B) by bioluminescent imaging weekly. […] C After 4 weeks, mice were sacrificed and livers were imaged. D The body weight of C57BL/6 tumor-bearing mice were measured weekly.
C57BL/6, male, 8-week-old mice were obtained from the Animal Center of East China Normal University. All animal experimental protocols were approved by the Animal Investigation Committee of the Institute of Biomedical Sciences, East China Normal University. PAN02 cells that stably expressed luciferase (PAN02-luc) were embedded in Matrigel (BD Biosciences) and intrasplenically injected into mice. Tumors were allowed to grow for 1 week and treatment of the mice with either compound or control was started after grouping of the mice according to average bioluminescence. The IVIS Imaging System (Xenogen Corporation) was used to monitor pancreatic tumor growth and metastasis. Images and measurements of bioluminescent signals were acquired and analyzed using Living Image and Xenogen software.

[2] = system: PAN02-luc; test: Orthotopic pancreatic cancer tumor model; type: in vivo, C57BL/6 mice; conditions: week 4, C188-9 group
Protocol: Fig. 7 N4 inhibits tumor growth in an orthotopic pancreatic cancer model. C57BL/6 mice were injected the tail of the pancreas with luciferase-expressing PAN02 cells (PAN02-luc) in matrigel and tumor growth was assessed (A) and quantified (B) by bioluminescent imaging weekly. Data represent the mean ± SD; *P < 0.05, **P < 0.01, ***P < 0.001, ****P < 0.0001, n.s. not significant by one-way ANOVA followed by multiple-comparison tests. (n = 5 mice per group) C After 4 weeks, mice were sacrificed and the pancreas were imaged. The tumor of pancreas were photographed (D) and weighted (E), scale bar, 0.5 cm.
Briefly, specimens of tumor tissue from xenograft models and orthotopic models were fixed with 4% paraformaldehyde solution at 4 °C overnight. […] Then, according to the manufacturer’s instructions (SK-4100; Vector laboratories), the avidin-biotin peroxidase complex was used, followed by colorimetric detection using DAB. Finally, hematoxylin was used to counterstain the sections and coverslips were mounted.
C57BL/6 mice, male, 4–6 week old were obtained from the Animal Center of East China Normal University. All animal experimental protocols were approved by the Animal Investigation Committee of the Institute of Biomedical Sciences, East China Normal University. PAN02 cells that stably expressed luciferase (PAN02-luc) were embedded in Matrigel (BD Biosciences) were injected with 5 × 10^5 in the tail of the pancreas. On the next day (day 0), the mice were subjected to bioluminescent imaging and divided into four groups according to the luciferase luminescence value. Mice were treated with intraperitoneal injection of indicated compound or drug. Tumor growth was analyzed once a week by an IVIS Imaging System (Xenogen Corporation, Alameda, CA) and end of study tumor weight was determined immediately postmortem. […] Images and measurements of bioluminescent signals were acquired and analyzed using Living Image and Xenogen software.

[3] = molecular target: T1, STAT3^127–722 protein (Homo sapiens, UniProt P40763); test: Surface plasmon resonance (SPR) assay; type: binding; conditions: SPR
T1 construct: made in house
Protocol: Surface plasmon resonance (SPR) analysis was conducted with a Biacore T200 instrument (GE Healthcare) with CM5 sensor chip (GE Healthcare). To test N4 binding of STAT3^127–722 protein, serially diluted concentrations of N4 were injected into the flow system. Experiments were conducted using phosphate buffered saline (PBS) and the analyte was injected at the flow rate of 30 μL/min. The association time was 60 s and the dissociation time was 30 s. Since N4 was dissolved in PBS containing 5% dimethyl sulfoxide and a solvent correction assay was performed to adjust the results. STAT3^127–722 protein was immobilized on the sensor chip (CM5) using the amine-coupling method according to standard protocols. N4 or Stattic at various concentrations were injected into the flow system. […] The KD values were calculated with the kinetics and affinity analysis option of Biacore T200 plus evaluation software (version 3.0).

[4] = molecular target: His-STAT3^127-722 protein (Homo sapiens, UniProt P40763); test: Fluorescence polarization (FP) assay, STAT3-phosphopeptide interaction; type: binding; set-up: We purified amino acids 127–722 of the STAT3 protein for this assay; made in house; conditions: Supplementary Table 1; inhibition of STAT3 dimerization in FP assay; read-out: FP assay (IC50 μM)
Sequence of His-STAT3^127-722 protein (P40763 127-722): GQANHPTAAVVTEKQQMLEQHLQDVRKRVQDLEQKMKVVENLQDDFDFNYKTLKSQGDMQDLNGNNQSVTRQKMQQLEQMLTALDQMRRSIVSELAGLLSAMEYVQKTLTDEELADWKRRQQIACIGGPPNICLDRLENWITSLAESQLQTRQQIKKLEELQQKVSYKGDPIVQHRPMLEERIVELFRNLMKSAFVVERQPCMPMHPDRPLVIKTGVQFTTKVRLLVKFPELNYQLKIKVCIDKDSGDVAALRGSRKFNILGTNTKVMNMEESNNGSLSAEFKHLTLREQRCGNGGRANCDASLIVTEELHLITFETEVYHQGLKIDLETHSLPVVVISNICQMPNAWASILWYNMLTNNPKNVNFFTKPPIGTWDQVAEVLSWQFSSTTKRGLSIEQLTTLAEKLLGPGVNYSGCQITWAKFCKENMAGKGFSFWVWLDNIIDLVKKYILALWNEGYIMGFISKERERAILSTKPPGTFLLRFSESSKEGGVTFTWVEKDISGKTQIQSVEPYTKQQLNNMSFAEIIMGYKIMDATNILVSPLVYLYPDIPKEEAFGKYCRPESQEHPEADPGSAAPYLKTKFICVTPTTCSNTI
Protocol: A Purified STAT3 protein was incubated with labeled phosphopeptide, 5-carboxyfluorescein-GpYLPQTV-NH2 for 1 h at 37 °C. FP signals were measured, and the data were analyzed using Graph Pad 7.0 software. […] C Different concentrations of N4 were pre-incubated with recombined STAT3 protein for 1 h, then 10 nM of labeled peptide was added for 1 h. The IC50 was calculated using Graph Pad 7.0.
The labeled phosphopeptide: 5-carboxyfluorescein-GpYLPQTV-NH2 (where pY represents phospho-Tyr) was used as the STAT3 binding probe. To evaluate the effect of compounds in inhibiting STAT3-peptide interaction, serial dilutions of the STAT3 competitors were prepared. The diluted compounds were added to the reaction mixture in 100 μl of FP buffer (50 mM HEPES, pH 7.5, 150 mM NaCl, 0.1% NP-40, and 1 mM dithiothreitol) containing 500 nM his-STAT3^127–722 protein for pre-incubation at 37 °C for 1 h. Then, 10 nM of the labeled peptide was added and incubated for 1 h. After incubation, FP was measured on a Cytation^TM 5 cell imaging multi-mode Reader (BioTek) using excitation and emission wavelengths of 480 nm and 535 nm, respectively. Each reaction was repeated two or three times. Binding or competitive parameters were calculated from a nonlinear regression using GraphPad Prism 7.0.

T1 sequence (P40763 127-722): as above

pKd ([3]; STAT3^127–722 immobilized on CM5 chip, 25 °C)	pKd ([3]; value given in figure)	IC50 [4]	SMILES	all mice died by week ([1]; C188-9 group, n = 5)	tumor metastasis suppressed compared with the control group ([1]; week 4, C188-9 group)	tumor volume suppressed compared with the control group [2]
			COc1ccc(S(=O)(=O)Nc2cc(-c3c(O)ccc4ccccc34)c(O)c3ccccc23)cc1 [C188-9, reference compound]	≤ 6 week	30.65%	48.23%
5.02	5.02	4.99 µM	O=[N+]([O-])c1ccc2c(c1)S(=O)(=O)C=C2 [Stattic, reference compound]			
